Values of other authors, collected in patent publication US11160871B2, “SSTR-targeted conjugates and particles and formulations thereof” (TARVEDA THERAPEUTICS, INC., priority 2015, dated 2021).

Tests used:
Conditions in all cases: read-out: Octreoscan Ki; cited from earlier work
[1] = biological target: SSTR3 (Homo sapiens, UniProt P32745)
[2] = biological target: SSTR4 (Homo sapiens, UniProt P31391)
[3] = biological target: SSTR2 (Homo sapiens, UniProt P30874); design: expressed in transfected cells
Chain of SSTR2 (P30874 whole entry): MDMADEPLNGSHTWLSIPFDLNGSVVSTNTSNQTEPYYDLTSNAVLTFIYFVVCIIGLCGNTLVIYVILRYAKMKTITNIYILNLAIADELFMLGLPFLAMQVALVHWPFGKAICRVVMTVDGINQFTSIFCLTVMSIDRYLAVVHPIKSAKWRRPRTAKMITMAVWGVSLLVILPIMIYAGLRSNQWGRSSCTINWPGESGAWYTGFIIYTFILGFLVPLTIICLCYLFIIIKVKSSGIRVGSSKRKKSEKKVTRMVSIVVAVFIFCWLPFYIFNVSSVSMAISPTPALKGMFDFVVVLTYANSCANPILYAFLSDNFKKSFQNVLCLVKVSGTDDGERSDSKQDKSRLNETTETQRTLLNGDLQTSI

[4] = biological target: SSTR1 (Homo sapiens, UniProt P30872)
Chain of SSTR1 (P30872 whole entry): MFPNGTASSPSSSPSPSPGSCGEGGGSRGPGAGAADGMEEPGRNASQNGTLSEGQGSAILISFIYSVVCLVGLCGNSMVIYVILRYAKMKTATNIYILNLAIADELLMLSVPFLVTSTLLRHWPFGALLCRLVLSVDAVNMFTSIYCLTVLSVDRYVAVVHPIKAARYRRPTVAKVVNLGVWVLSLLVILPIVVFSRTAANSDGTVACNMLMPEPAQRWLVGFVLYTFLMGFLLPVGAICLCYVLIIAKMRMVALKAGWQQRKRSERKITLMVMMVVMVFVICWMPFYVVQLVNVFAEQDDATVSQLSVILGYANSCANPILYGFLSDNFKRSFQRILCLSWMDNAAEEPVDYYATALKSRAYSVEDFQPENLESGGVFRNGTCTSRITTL

[5] = biological target: SSTR5 (Homo sapiens, UniProt P35346)
Chain of SSTR5 (P35346 whole entry): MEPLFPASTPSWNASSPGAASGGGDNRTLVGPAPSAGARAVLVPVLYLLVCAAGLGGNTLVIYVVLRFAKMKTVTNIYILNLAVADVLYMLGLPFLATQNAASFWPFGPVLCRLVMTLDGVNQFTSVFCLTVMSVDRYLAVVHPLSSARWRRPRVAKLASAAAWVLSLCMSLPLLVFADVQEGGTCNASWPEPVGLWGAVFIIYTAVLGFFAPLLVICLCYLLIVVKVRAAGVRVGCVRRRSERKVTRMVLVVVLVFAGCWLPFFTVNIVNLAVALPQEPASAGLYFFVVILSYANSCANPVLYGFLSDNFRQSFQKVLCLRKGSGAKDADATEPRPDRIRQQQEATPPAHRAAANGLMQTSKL

Chain of SSTR3 (P32745 whole entry): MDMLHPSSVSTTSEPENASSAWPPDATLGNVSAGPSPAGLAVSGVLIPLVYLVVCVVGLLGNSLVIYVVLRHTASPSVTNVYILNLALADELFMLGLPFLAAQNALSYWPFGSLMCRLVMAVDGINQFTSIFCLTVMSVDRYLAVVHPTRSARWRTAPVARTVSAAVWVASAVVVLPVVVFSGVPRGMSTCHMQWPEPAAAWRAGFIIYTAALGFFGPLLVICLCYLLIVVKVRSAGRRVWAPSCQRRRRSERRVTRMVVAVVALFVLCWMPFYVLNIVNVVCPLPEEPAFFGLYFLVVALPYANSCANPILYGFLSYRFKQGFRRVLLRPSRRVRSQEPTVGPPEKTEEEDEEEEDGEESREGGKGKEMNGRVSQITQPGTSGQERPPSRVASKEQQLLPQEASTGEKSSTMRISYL
Chain of SSTR4 (P31391 whole entry): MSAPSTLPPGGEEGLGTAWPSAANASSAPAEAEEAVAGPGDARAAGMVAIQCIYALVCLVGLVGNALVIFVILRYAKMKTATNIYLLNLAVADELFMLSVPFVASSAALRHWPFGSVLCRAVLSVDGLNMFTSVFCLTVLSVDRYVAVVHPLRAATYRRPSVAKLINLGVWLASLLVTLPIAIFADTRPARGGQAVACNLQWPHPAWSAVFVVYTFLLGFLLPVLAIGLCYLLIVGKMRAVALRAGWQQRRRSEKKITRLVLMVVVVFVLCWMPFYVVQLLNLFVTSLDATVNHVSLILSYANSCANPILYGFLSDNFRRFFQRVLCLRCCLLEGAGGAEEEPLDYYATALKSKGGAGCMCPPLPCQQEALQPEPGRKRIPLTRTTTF

Indium-111 pentetreotide [Octreoscan]
Ki [1]: 0.182 µM | Ki [2]: > 1 µM | Ki [3]: 0.022 µM | Ki [4]: > 10 µM | Ki [5]: 0.237 µM
